US11999782B2, “Therapeutic agents for the treatment of diseases associated with undesired cell proliferation” (Fundació Privada Institutció Catalana de Recerca I Estudis …, priority 2009, dated 2024)

Key:
GBM neurospheres = assay: Differentiation of GBM neurospheres (neuroprogenitor markers, adhesion); type: cell-based, human; settings: 7 days without EGF or FGF; for adhesion to the culture plate / morphology versus control cells: GBM neurospheres, poly-L-lysine
Description: FIG. 7. TGFβ and LIF prevent the differentiation of GBM neurospheres. (A) Immunocytochemistry of the indicated proteins was performed in neurospheres derived from GBM1 treated with 100 pM TGFβ1 or 20 ng/ml LIF for 7 days in the absence of growth factors and the last 3 days on slides coated with poly-L-lysine. (B) The mRNA levels of Musashi-1 (Msi-1), Sox2 and Nestin were determined in GBM1 neurospheres after 7 days of the indicated treatments without growth factors. The RNA levels of 18S were used as an internal normalization control.
The immunocytochemistry of neurospheres and differentiated neurospheres was performed as described (Geshwind et al., 2001) using the following antibodies: anti-nestin (Chemicon), anti-GFAP (Dako), anti-TuJ1 (Chemicon), anti-04 (Chemicon), anti-Sox2 (Chemicon), anti-α-tubulin (Sigma). The nuclei were counterstained with 4′,6-diamino-2-phenylindole (DAPI).
qRT-PCR was performed using Taqman probes from Applied Biosystems, according to the manufacturer's recommendations. The reactions were carried out in a ABI 7000 sequence detector (Perkin Elmer) and the results were expressed as the fold change calculated by means of the DDCt method relative to the control sample or the first quantified sample. The ribosomal unit of 18S or β-actin were used as internal normalization controls.
The neurospheres derived from GBMs grown in the absence of growth factors and seeded in poly-L-lysine-coated plates tend to differentiate losing the expression of the neuroprogenitor markers Musashi-1, Sox2 and Nestin, and being adhered to the culture plate. It was decided to evaluate the effect of TGFβ and LIF on this differentiation process. The neurospheres were cultured in the presence of TGFβ or LIF without EGF or FGF for 7 days and subsequently processed for immunohistochemical staining and qRT-PCR assays for determining the levels of the neuroprogenitor markers Musashi-1, Sox2 and Nestin.

[1] = system: LIF expression in normal human neuroprogenitors; assay: LIF mRNA in neurospheres of normal human neuroprogenitors; type: cell-based; settings: 100 pM, 3 hours, compared with GBM neurospheres
Description: FIG. 8. Effect of TGFβ on the capacity of self-renewal of normal human neuroprogenitors. (A) Immunocytochemistry of the indicated markers was performed in human neuroprogenitor neurospheres. (B) Neurospheres of the sample of GBM1 and of human neuroprogenitors were incubated with the indicated members of the 100 pM TGFβ family for 3 hours and the mRNA levels of LIF were determined. (C, D) Neurosphere cells of normal human neuroprogenitors were incubated in the same conditions that have been described above in FIG. 1D in the presence of 100 pM TGFβ1 or 20 ng/ml LIF for 7 days and the number of newly formed neurospheres (C) and the number total of cells (D) were determined.
The U373MG and A172 cells were a generous gift from J. Rich and D. Bigner and were cultured in DMEM with 10% fetal bovine serum (FBS). The primary culture of tumor cells (PCTC) and the GBM neurospheres were generated as described (Bruna et al., (2007) Cancer Cell 11, 147-160; Gunther et al., (2008) Oncogene. May 1; 27(20):2897-909). Briefly, the samples of tumors were processed in the 30 minutes after the surgical resection. The ground pieces of the samples of human gliomas were digested with 200 U/ml collagenase I (Sigma) and 500 U/ml of DNase I (Sigma) in PBS for 2 hours at 37° C. and with constant vigorous stirring. The suspension of individual cells was filtered through a 70 μm cell filter (BD Falcon) and washed with PBS. […]
qRT-PCR was performed using Taqman probes from Applied Biosystems, according to the manufacturer's recommendations. The reactions were carried out in a ABI 7000 sequence detector (Perkin Elmer) and the results were expressed as the fold change calculated by means of the DDCt method relative to the control sample or the first quantified sample. […]
It was decided to assess whether this effect was specific to tumor cells or was also present in normal neuroprogenitor cells. […] First, it was determined if TGFβ induced LIF in normal human neuroprogenitors. […]

Substance	expression of Musashi-1, Sox2 and Nestin (immunocytochemistry, qRT-PCR) (GBM neurospheres; GBM1 neurospheres, 100 pM TGFβ1 or 20 ng/ml LIF)	adhesion to the culture plate / morphology versus control cells (GBM neurospheres)	induction of LIF mRNA in normal human neuroprogenitor neurospheres [1]
LIF: recombinant leukemia inhibitory factor, an IL-6 type cytokine (Chemicon)	maintained the expression	adhered less to the culture plate	
TGFβ: TGFβ1 (R&D Systems), used at 100 pM according to the figure legends		adhered less to the culture plate	did not induce LIF
